Data as given in patent US10941126B2, “Bridged bicycloalkyl-substituted aminothiazoles and their methods of use” (Temple University—Of The Commonwealth System of Higher …, priority 2017, dated 2021).

Tested on: panel of 250 kinases
Experiment: 250 kinome screening at 1 μM
Format: biochemical, human
Experimental: HDAC inhibitory activity assays were performed using FLUOR DE LYS® HDAC fluorometric activity assay kit from Enzo following the manufacturer's instructions. GloMax®-Multi Detection System (Promega) was used to read the fluorescence signals. Histone methyltransferase and demethylase enzymatic assays were performed by BPS Bioscience at 10 μM in duplicates. Kinase enzymatic assays were performed by Nanosyn using microfluidic technology. 250 kinome screening was done in duplicates using MC180295 at 1 μM. IC50 curves against 10 CDKs were created for MC180295. The human kinome tree was annotated using the online Kinome Render software (Chartier, M., Chénard, T., Barker, J., and Najmanovich, R. (2013). PeerJ 1, e126). Isotope kinase assay was performed using previously described methods (Garriga, J., Peng, J., Parreño, M., Price, D. H., Henderson, E. E., and Graña, X. (1998). Oncogene 17, 3093-3102) using recombinant active full-length CDK9/CyclinT1 (Millipore, 14-685) and SMARCA4 (Abcam, ab82237) in the presence or absence of CDK9 inhibitors.

Nc1nc(N[C@H]2CC3CCC2C3)sc1C(=O)c1ccccc1[N+](=O)[O-] (stereo partly shown) [MC180295]
selectivity against a panel of 250 kinases: highly selective against CDKs
